Here are results for four sequences from US20070128217A1 (priority 2003, published 2007).

For test [1], the system named is antibodies in sera from SARS patients (sera 1a, 1b, 2, 6, 37, 62, London, SARS-yellow, SARS-green). The test is classed as binding, human. Also noted: Binding of serum 6 to linear peptides of protein X1 of SARS-CoV Urbani / Binding of serum 37 to linear peptides of protein X1 of SARS-CoV Urbani / Binding of serum 6 to looped/cyclic peptide (PEPSCAN-ELISA) / Binding of serum 37 to looped/cyclic peptide (PEPSCAN-ELISA) / Binding of serum 37 to looped/cyclic peptides of protein X1 of SARS-CoV Urbani / Binding of serum 6 to linear peptides of protein X2 / Binding of serum 37 to linear peptides of protein X2 / Binding of serum 37 to looped/cyclic peptides of protein X2 of SARS-CoV Urbani / Binding of serum 6 to linear peptides of protein M of SARS-CoV Urbani / Binding of serum 37 to linear peptides of protein M of SARS-CoV Urbani / Binding of serum 6 to looped/cyclic peptides of protein M of SARS-CoV Urbani / Binding of serum 37 to looped/cyclic peptides of protein M of SARS-CoV Urbani / Binding of serum 6 to linear peptides of protein X3 of SARS-CoV Urbani / Binding of serum 37 to linear peptides of protein X3 of SARS-CoV Urbani / Binding of serum 37 to looped/cyclic peptides of protein X3 of SARS-CoV Urbani / Binding of serum 6 to linear peptides of protein X4 of SARS-CoV Urbani / Binding of serum 37 to linear peptides of protein X4 of SARS-CoV Urbani / Binding of serum 37 to looped/cyclic peptides of protein X4 of SARS-CoV Urbani / Binding of serum 6 to linear peptides of protein X5 of SARS-CoV Urbani / Binding of serum 37 to linear peptides of protein X5 of SARS-CoV Urbani / Binding of serum 37 to looped/cyclic peptides of protein X5 of SARS-CoV Urbani / Binding of serum 6 to linear peptides of protein N of SARS-CoV Urbani / Binding of serum 37 to linear peptides of protein N of SARS-CoV Urbani / Binding of serum 6 to linear peptide (PEPSCAN-ELISA) / Binding of serum 1a to looped/cyclic peptides of protein N of SARS-CoV Urbani / Binding of serum 1b to looped/cyclic peptides of protein N of SARS-CoV Urbani / Binding of serum 2 to looped/cyclic peptides of protein N of SARS-CoV Urbani / Binding of serum 6 to looped/cyclic peptides of protein N of SARS-CoV Urbani / Binding of serum 37 to looped/cyclic peptides of protein N of SARS-CoV Urbani / Binding of serum 62 to looped/cyclic peptides of protein N of SARS-CoV Urbani / Binding of serum London to looped/cyclic peptides of protein N of SARS-CoV Urbani / Binding of serum SARS-green to looped/cyclic peptides of protein N of SARS-CoV Urbani: unit not given here.

Test [2] concerns control sera (pooled serum of ten healthy LUMC hospital workers; commercial negative donor pooled serum from the Dutch bloodbank). It counts as binding, human. Details: Binding of Control serum LUMC to linear peptides / Binding of Control serum Blood-bank to linear peptides / Binding of Control serum LUMC to looped peptides / Binding of Control Serum Blood-Bank to Looped peptides / Binding of Control serum LUMC to linear peptides of the protein M of SARS-CoV Urbani / Binding of Control serum Blood-bank to linear peptides of the protein M of SARS-CoV Urbani / Binding of Control serum LUMC to looped peptides of the protein M of SARS-CoV Urbani / Binding of Control Serum Blood-Bank to Looped peptides of the protein M of SARS-CoV Urbani: unit not given here.

In test [3] the test system is rabbit serum obtained by immunizing a rabbit with the SARS-CoV strain Frankfurt 1. The test is classed as binding. Details: Binding of a rabbit serum to linear peptides / Binding of a rabbit serum to looped peptides / Rabbit serum linear peptides / Rabbit serum looped peptides / Binding of a rabbit serum to linear peptides of protein N of SARS-CoV Urbani (Rabbit serum linear peptides) / Binding of a rabbit serum to looped/cyclic peptides of protein N of SARS-CoV Urbani (Rabbit serum looped peptides): unit not given here.

In the case of LFLAWIMLLQFAYSN, in test [1], the “Binding of serum 1a to linear peptides of protein M of SARS-CoV Urbani” value was determined as 0.7, the “Binding of serum 1a to looped/cyclic peptides of protein M of SARS-CoV Urbani” value is given as 0.8, the “Binding of serum 1b to linear peptides of protein M of SARS-CoV Urbani” value worked out at 0.5 and the “Binding of serum 1b to looped/cyclic peptides of protein M of SARS-CoV Urbani” value is reported as 0.6. In test [1], the “Binding of serum 2 to linear peptides of protein M of SARS-CoV Urbani” value is 0.3, the “Binding of serum 2 to looped/cyclic peptides of protein M of SARS-CoV Urbani” value amounted to 0.6, the “Binding of serum 6 to linear peptides of protein M of SARS-CoV Urbani” value is 0.3 and the “Binding of serum 6 to looped/cyclic peptides of protein M of SARS-CoV Urbani” value was 0.7. In addition, in test [1], the “Binding of serum 37 to linear peptides of protein M of SARS-CoV Urbani” value stood at 0.6, the “Binding of serum 37 to looped/cyclic peptides of protein M of SARS-CoV Urbani” value was found to be 0.7, the “Binding of serum 62 to linear peptides of protein M of SARS-CoV Urbani” value was 0.7 and the “Binding of serum 62 to looped/cyclic peptides of protein M of SARS-CoV Urbani” value amounted to 0.7. In addition, in test [1], the “Binding of serum London to linear peptides of protein M of SARS-CoV Urbani” value amounted to 0.2, the “Binding of serum London to looped/cyclic peptides of protein M of SARS-CoV Urbani” value was 0.3, the “Binding of serum SARS-green to linear peptides of protein M of SARS-CoV Urbani” value amounted to 0.2 and the “Binding of serum SARS-green to looped/cyclic peptides of protein M of SARS-CoV Urbani” value worked out at 0.3. Further, in test [1], the “Binding of serum SARS-yellow to linear peptides of protein M of SARS-CoV Urbani” value was determined as 0.0 and the “Binding of serum SARS-yellow to looped/cyclic peptides of protein M of SARS-CoV Urbani” value amounted to 0.6. In addition, in test [2], the “Binding of Control Serum Blood-Bank to Looped peptides of the protein M of SARS-CoV Urbani” value is recorded as 0.7, the “Binding of Control serum Blood-bank to linear peptides of the protein M of SARS-CoV Urbani” value stood at 0.5, the “Binding of Control serum LUMC to linear peptides of the protein M of SARS-CoV Urbani” value was found to be 0.2 and the “Binding of Control serum LUMC to looped peptides of the protein M of SARS-CoV Urbani” value is listed as 0.6. In test [3], the “Rabbit serum linear peptides” value worked out at 0.7 and the “Rabbit serum looped peptides” value was 0.3.
For the sequence LFMRFFTLGSITAQP, in test [1], the “Binding of serum 1a to linear peptides of protein X1 of SARS-CoV Urbani” value is 0.8, the “Binding of serum 1a to looped/cyclic peptide (PEPSCAN-ELISA)” value worked out at 0.5, the “Binding of serum 1b to linear peptides of protein X1 of SARS-CoV Urbani” value is on record as 0.7 and the “Binding of serum 1b to looped/cyclic peptide (PEPSCAN-ELISA)” value was determined as 0.3. In addition, in test [1], the “Binding of serum 2 to linear peptides of protein X1 of SARS-CoV Urbani” value turned out to be 0.6, the “Binding of serum 2 to looped/cyclic peptide (PEPSCAN-ELISA)” value worked out at 0.4, the “Binding of serum 6 to linear peptides of protein X1 of SARS-CoV Urbani” value was 0.5 and the “Binding of serum 6 to looped/cyclic peptide (PEPSCAN-ELISA)” value was 0.3. In test [1], the “Binding of serum 37 to linear peptides of protein X1 of SARS-CoV Urbani” value stood at 0.6, the “Binding of serum 37 to looped/cyclic peptide (PEPSCAN-ELISA)” value turned out to be 0.5, the “Binding of serum 62 to linear peptides of protein X1 of SARS-CoV Urbani” value is listed as 0.6 and the “Binding of serum 62 to looped/cyclic peptide (PEPSCAN-ELISA)” value came to 0.5. Further, in test [1], the “Binding of serum London to linear peptides of protein X1 of SARS-CoV Urbani” value is reported as 0.3, the “Binding of serum London to looped/cyclic peptide (PEPSCAN-ELISA)” value is 0.2, the “Binding of serum SARS-green to linear peptides of protein X1 of SARS-CoV Urbani” value came to 0.2 and the “Binding of serum SARS-green to looped/cyclic peptide (PEPSCAN-ELISA)” value came to 0.3. Also, in test [1], the “Binding of serum SARS-yellow to linear peptides of protein X1 of SARS-CoV Urbani” value is 0.6 and the “Binding of serum SARS-yellow to looped/cyclic peptide (PEPSCAN-ELISA)” value came to 0.4. Moreover, in test [2], the “Binding of Control Serum Blood-Bank to Looped peptides” value was 0.7, the “Binding of Control serum Blood-bank to linear peptides” value was 0.7, the “Binding of Control serum LUMC to linear peptides” value amounted to 0.6 and the “Binding of Control serum LUMC to looped peptides” value amounted to 0.5. Moreover, in test [3], the “Binding of a rabbit serum to linear peptides” value is reported as 0.5 and the “Binding of a rabbit serum to looped peptides” value stood at 0.4.
For the sequence LFVTIYSHLLLVAAG, in test [1], the “Binding of serum 1a to linear peptides of protein X1 of SARS-CoV Urbani” value stood at 0.7, the “Binding of serum 1a to looped/cyclic peptide (PEPSCAN-ELISA)” value is given as 0.5, the “Binding of serum 1b to linear peptides of protein X1 of SARS-CoV Urbani” value is listed as 0.4 and the “Binding of serum 1b to looped/cyclic peptide (PEPSCAN-ELISA)” value is 0.3. In test [1], the “Binding of serum 2 to linear peptides of protein X1 of SARS-CoV Urbani” value was 0.6, the “Binding of serum 2 to looped/cyclic peptide (PEPSCAN-ELISA)” value was determined as 0.4, the “Binding of serum 6 to linear peptides of protein X1 of SARS-CoV Urbani” value is reported as 0.3 and the “Binding of serum 6 to looped/cyclic peptide (PEPSCAN-ELISA)” value is reported as 0.2. Further, in test [1], the “Binding of serum 37 to linear peptides of protein X1 of SARS-CoV Urbani” value is given as 0.6, the “Binding of serum 37 to looped/cyclic peptide (PEPSCAN-ELISA)” value is recorded as 0.5, the “Binding of serum 62 to linear peptides of protein X1 of SARS-CoV Urbani” value is listed as 0.5 and the “Binding of serum 62 to looped/cyclic peptide (PEPSCAN-ELISA)” value is given as 0.5. For the same sequence, in test [1], the “Binding of serum London to linear peptides of protein X1 of SARS-CoV Urbani” value was 0.2, the “Binding of serum London to looped/cyclic peptide (PEPSCAN-ELISA)” value is given as 0.2, the “Binding of serum SARS-green to linear peptides of protein X1 of SARS-CoV Urbani” value worked out at 0.2 and the “Binding of serum SARS-green to looped/cyclic peptide (PEPSCAN-ELISA)” value came to 0.3. For the same sequence, in test [1], the “Binding of serum SARS-yellow to linear peptides of protein X1 of SARS-CoV Urbani” value amounted to 0.5 and the “Binding of serum SARS-yellow to looped/cyclic peptide (PEPSCAN-ELISA)” value amounted to 0.4. In addition, in test [2], the “Binding of Control Serum Blood-Bank to Looped peptides” value is reported as 0.6, the “Binding of Control serum Blood-bank to linear peptides” value was 0.5, the “Binding of Control serum LUMC to linear peptides” value was 0.4 and the “Binding of Control serum LUMC to looped peptides” value came out at 0.6. Moreover, in test [3], the “Binding of a rabbit serum to linear peptides” value was 0.1 and the “Binding of a rabbit serum to looped peptides” value amounted to 0.6.
Regarding LIARCWYLHEGHQTA, in test [1], the “Binding of serum 1a to linear peptides of protein X5 of SARS-CoV Urbani” value is recorded as 0.7, the “Binding of serum 1a to looped/cyclic peptides of protein X5 of SARS-CoV Urbani” value amounted to 0.4, the “Binding of serum 1b to linear peptides of protein X5 of SARS-CoV Urbani” value worked out at 0.6 and the “Binding of serum 1b to looped/cyclic peptides of protein X5 of SARS-CoV Urbani” value turned out to be 0.4. Further, in test [1], the “Binding of serum 2 to linear peptides of protein X5 of SARS-CoV Urbani” value stood at 0.6, the “Binding of serum 2 to looped/cyclic peptides of protein X5 of SARS-CoV Urbani” value is given as 0.2, the “Binding of serum 6 to linear peptides of protein X5 of SARS-CoV Urbani” value is on record as 0.1 and the “Binding of serum 6 to looped/cyclic peptides of protein X5 of SARS-CoV Urbani” value was determined as 0.1. Besides, in test [1], the “Binding of serum 37 to linear peptides of protein X5 of SARS-CoV Urbani” value turned out to be 0.8, the “Binding of serum 37 to looped/cyclic peptides of protein X5 of SARS-CoV Urbani” value worked out at 0.3, the “Binding of serum 62 to linear peptides of protein X5 of SARS-CoV Urbani” value is reported as 0.9 and the “Binding of serum 62 to looped/cyclic peptides of protein X5 of SARS-CoV Urbani” value worked out at 0.1. For the same sequence, in test [1], the “Binding of serum London to linear peptides of protein X5 of SARS-CoV Urbani” value is 0.6, the “Binding of serum London to looped/cyclic peptides of protein X5 of SARS-CoV Urbani” value turned out to be 0.0, the “Binding of serum SARS-green to linear peptides of protein X5 of SARS-CoV Urbani” value turned out to be 0.6 and the “Binding of serum SARS-green to looped/cyclic peptides of protein X5 of SARS-CoV Urbani” value is reported as 0.6. Besides, in test [1], the “Binding of serum SARS-yellow to linear peptides of protein X5 of SARS-CoV Urbani” value is 0.0 and the “Binding of serum SARS-yellow to looped/cyclic peptides of protein X5 of SARS-CoV Urbani” value came to 0.0. Moreover, in test [2], the “Binding of Control Serum Blood-Bank to Looped peptides” value came out at 0.3, the “Binding of Control serum Blood-bank to linear peptides” value was found to be 0.6, the “Binding of Control serum LUMC to linear peptides” value is given as 0.4 and the “Binding of Control serum LUMC to looped peptides” value is 0.0. In addition, in test [3], the “Rabbit serum linear peptides” value came to 0.8 and the “Rabbit serum looped peptides” value is on record as 0.0.
